Where two headings read alike, the source gives them in different places.
Experiments:
TK6 cells = tested on: TK6 cells; design: method as in PMID 33348640; details: 1 h, cited from earlier work
[1] = tested on: differentiated SH-SY5Y cells; design: method as in PMID 37631071, PMID 25900438; details: same in vitro model; cited from earlier work
[2] = tested on: differentiated SH-SY5Y cells; design: method as in PMID 37631071, PMID 25900438; details: same in vitro model; cited from earlier work; remark: listed apart in the source
MAO-A and MAO-B = details: rat model; cited from earlier work
[3] = tested on: differentiated SH-SY5Y cells; details: same experimental conditions; cited from earlier work
serotonergic B65 cells = tested on: serotonergic B65 cells; design: method as in doi:10.1007/s11419-020-00527-w; details: cited from earlier work
[4] = tested on: dopaminergic CATH.a cells and 5-HT-containing B65 cells; design: method as in doi:10.1007/s11419-020-00527-w; details: 24 h exposure; read-out: EC50, LDH assay; cited from earlier work
[5] = tested on: differentiated SH-SY5Y cells; test: Intracellular ROS/RNS levels, DCFH-DA probe; format: cell-based, human; details: positive control, 24 h
Description: Reactive species play important roles in cell signaling and immune response. However, when their levels are excessive, they can cause oxidative stress and damage the cells. The intracellular reactive oxygen species (ROS) and reactive nitrogen species (RNS) levels were measured using the cell-permeable DCFH-DA probe. Inside the cells, DCFH-DA is cleaved by cellular esterases originating DCFH, which is oxidized by ROS/RNS, resulting in the fluorescent 2′,7′-dichlorofluorescein (DCF).
Therefore, the SH-SY5Y cells were seeded onto 96-well plates (25,000 cells/cm^2) following the previously described seeding and differentiation protocol. […] Tert-butyl hyoperoxide (t-BHP, 100 µM, 24 h) was used as a positive control.
At the end of the incubation period, the DCF fluorescence was measured at an excitation wavelength of 485 nm and an emission wavelength of […] in a multi-well plate reader (PowerWaveX, BioTek Instruments, Winooski, VT, USA). The detection of ROS/RNS was assessed by the percent of probe oxidation relative to the control cells (0 µM), and a minimum of 4 independent experiments were conducted in triplicate.

SMILES	increase in ROS levels (TK6 cells; 12.5 µM)	tGSH content [1]	ROS production [2]	deamination by MAO-A and MAO-B (MAO-A and MAO-B)	EC50 [4] [µM]	other results
COc1cc(CCNCc2ccccc2OC)c(OC)cc1Br [25B-NBOMe]	two-fold	significant decrease in the tGSH content	no ROS production	–	–	–
COc1cc(CCN)c(OC)cc1Br [2C-B]	two-fold	significant decrease in the tGSH content	no ROS production	both isoenzymes can catalyze the deamination	–	drug-induced cytotoxicity upon MAO inhibition [3]: significant increase in the drug-induced cytotoxicity was observed upon MAO inhibition
COc1cc(CCN)c(OC)cc1I [2C-I]	–	–	–	both isoenzymes can catalyze the deamination	–	mitochondrial production of ROS (serotonergic B65 cells): increase in the mitochondrial production of ROS; increase in ROS levels (TK6 cells; 35 µM): two-fold
CN[C@@H](C)Cc1ccccc1 [methamphetamine]	–	–	–	–	1500 to 3000	–
CC(C)(C)OO [t-BHP, tert-butyl hydroperoxide]	–	–	–	–	–	activity at 100 µM ([5]; Homo sapiens, SH-SY5Y, control 100.0%): 188%; increase of ROS levels ([5]; 100 µM): approximately 90%
CNC(C)Cc1ccc2c(c1)OCO2 (stereo not drawn) [MDMA, 3,4-methylenedioxymethamphetamine]	–	–	–	–	1500 to 3000	–

Reference: article PMC11204507, “Mechanistic Insights into the Neurotoxicity of 2,5-Dimethoxyphenethylamines (2C) and Corresponding N-(2-methoxybenzyl)phenethylamine (NBOMe) Drugs” (Journal of Xenobiotics, 2024)
